Values quoted from earlier work in patent publication US8324203B2, “Azadecalin glucocorticoid receptor modulators” (Corcept Therapeutics, Inc., priority 2004, dated 2012).

Assays:
[1] = test system: patients with Cushing's syndrome
GR = GR (Homo sapiens, UniProt P04150)
Chain of GR (P04150 whole entry): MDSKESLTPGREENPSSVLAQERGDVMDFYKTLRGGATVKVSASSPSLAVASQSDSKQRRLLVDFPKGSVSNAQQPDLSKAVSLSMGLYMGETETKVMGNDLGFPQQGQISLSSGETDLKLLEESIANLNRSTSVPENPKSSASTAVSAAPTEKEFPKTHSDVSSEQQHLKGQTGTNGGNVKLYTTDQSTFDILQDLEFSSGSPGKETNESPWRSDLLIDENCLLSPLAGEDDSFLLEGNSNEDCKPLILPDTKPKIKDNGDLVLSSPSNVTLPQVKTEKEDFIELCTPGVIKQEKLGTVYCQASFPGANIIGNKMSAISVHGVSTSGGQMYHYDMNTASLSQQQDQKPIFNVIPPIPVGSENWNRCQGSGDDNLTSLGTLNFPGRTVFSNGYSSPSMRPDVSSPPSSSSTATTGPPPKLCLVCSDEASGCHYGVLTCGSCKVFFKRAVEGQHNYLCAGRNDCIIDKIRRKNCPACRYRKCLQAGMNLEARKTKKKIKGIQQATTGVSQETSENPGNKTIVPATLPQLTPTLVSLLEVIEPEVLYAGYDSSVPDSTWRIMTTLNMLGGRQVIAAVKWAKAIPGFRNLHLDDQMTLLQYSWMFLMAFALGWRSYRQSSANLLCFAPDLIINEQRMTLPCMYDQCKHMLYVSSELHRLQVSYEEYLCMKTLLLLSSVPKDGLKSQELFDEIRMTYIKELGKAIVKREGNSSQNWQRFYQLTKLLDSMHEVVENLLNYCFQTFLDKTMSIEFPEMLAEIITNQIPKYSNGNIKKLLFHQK

In the case of `CC#C[C@]1(O)CC[C@H]2[C@@H]3CCC4=CC(=O)CCC4=C3[C@@H](c3ccc(N(C)C)cc3)C[C@@]21C` [mifepristone], the “effect on acute psychosis” value ([1]; 400 to 800 mg per day, severe Cushing Syndrome due to adrenal cancers and ectopic secretion of ACTH from lung cancer) is given as “useful in rapidly reversing acute psychosis”, the “effect on patients' conditions, including psychiatric status” value ([1]; Cushing's syndrome patients) is given as “improved the patients' conditions” and the “anti-glucocorticoid activity in humans” value (GR) is given as “effective anti-glucocorticoid agent in humans”.
